One may read the IC50 as the midpoint of a concentration-inhibition curve.

The target of this assay is human Cav2.2 (Homo sapiens, UniProt Q00975). Kind of assay: Assessment of calcium channel activity using FLIPR (Ca2+ influx in IMR32 cells). The class given is cell-based. The conditions noted are these: 60 minute pre-incubation with compound, 2 μM nifedipine, depolarized with 80 mM KCl. The method, boiled down: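 IMR32 neuroblastoma cells seeded at 1-1.2×10^5 cells/well and grown 48 h at 37 °C before FLIPR Ca2+ influx read. Percent inhibition at each concentration vs no-inhibitor activity; IC50 by non-linear sigmoidal dose-response fit.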
Chain of human Cav2.2 (Q00975 whole entry): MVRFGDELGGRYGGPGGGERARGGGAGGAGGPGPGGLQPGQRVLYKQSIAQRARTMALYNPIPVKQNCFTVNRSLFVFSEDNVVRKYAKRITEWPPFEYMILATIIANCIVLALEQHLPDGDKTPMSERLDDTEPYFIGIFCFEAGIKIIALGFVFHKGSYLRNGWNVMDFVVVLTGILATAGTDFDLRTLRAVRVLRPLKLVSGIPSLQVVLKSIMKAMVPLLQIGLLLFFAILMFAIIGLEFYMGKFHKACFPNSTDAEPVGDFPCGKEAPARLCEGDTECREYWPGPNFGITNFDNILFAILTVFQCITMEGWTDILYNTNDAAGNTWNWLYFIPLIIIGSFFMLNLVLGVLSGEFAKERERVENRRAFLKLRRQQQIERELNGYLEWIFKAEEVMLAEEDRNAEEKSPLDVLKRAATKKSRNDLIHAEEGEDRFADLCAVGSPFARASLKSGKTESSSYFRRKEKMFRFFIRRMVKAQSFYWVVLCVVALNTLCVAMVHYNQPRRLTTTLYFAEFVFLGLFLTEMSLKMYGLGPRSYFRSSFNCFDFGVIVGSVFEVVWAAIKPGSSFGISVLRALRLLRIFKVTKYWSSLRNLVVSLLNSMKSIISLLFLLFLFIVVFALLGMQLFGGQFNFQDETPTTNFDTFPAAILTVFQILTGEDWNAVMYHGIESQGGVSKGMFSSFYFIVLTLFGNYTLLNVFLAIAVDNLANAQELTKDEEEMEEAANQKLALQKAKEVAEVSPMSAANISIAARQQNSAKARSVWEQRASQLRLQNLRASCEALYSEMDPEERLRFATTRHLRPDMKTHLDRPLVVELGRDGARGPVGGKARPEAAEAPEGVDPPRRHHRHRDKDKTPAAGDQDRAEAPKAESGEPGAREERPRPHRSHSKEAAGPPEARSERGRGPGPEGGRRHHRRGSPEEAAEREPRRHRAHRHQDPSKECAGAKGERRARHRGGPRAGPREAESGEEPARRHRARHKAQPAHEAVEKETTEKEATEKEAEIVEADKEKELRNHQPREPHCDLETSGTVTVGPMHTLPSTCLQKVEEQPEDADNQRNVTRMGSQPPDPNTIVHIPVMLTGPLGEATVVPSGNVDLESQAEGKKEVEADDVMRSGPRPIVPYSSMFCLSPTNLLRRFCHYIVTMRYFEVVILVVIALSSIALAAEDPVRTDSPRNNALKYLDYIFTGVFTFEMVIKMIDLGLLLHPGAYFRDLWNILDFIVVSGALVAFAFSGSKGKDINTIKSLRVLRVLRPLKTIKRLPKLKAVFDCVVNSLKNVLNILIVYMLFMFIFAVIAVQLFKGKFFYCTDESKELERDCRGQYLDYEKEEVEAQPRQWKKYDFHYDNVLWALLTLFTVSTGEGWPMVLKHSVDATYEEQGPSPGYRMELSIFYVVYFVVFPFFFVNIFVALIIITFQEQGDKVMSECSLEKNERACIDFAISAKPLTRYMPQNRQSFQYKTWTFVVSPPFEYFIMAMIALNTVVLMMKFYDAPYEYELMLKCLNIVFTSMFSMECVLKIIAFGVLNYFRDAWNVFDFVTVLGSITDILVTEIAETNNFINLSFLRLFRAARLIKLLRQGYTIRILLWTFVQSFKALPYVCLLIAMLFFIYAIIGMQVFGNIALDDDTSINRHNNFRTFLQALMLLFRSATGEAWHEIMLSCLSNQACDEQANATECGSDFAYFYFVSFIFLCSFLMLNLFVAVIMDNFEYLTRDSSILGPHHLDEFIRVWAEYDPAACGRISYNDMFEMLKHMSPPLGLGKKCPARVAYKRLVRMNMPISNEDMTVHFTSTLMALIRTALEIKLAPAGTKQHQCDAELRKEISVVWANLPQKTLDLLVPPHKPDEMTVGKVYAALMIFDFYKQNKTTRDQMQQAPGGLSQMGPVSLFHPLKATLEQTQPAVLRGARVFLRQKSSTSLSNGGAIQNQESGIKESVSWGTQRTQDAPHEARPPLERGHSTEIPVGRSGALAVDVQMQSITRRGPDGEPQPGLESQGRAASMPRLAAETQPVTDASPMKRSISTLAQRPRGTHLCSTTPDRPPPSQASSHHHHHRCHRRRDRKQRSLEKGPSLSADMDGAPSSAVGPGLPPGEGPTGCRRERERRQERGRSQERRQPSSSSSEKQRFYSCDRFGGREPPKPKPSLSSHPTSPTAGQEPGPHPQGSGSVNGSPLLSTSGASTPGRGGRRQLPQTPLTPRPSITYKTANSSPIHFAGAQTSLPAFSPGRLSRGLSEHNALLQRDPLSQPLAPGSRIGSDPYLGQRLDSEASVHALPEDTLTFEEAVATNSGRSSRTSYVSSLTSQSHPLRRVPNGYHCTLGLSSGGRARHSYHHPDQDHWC
Chain of human Cav2.2 (P54289 25-946 partner limits assumed): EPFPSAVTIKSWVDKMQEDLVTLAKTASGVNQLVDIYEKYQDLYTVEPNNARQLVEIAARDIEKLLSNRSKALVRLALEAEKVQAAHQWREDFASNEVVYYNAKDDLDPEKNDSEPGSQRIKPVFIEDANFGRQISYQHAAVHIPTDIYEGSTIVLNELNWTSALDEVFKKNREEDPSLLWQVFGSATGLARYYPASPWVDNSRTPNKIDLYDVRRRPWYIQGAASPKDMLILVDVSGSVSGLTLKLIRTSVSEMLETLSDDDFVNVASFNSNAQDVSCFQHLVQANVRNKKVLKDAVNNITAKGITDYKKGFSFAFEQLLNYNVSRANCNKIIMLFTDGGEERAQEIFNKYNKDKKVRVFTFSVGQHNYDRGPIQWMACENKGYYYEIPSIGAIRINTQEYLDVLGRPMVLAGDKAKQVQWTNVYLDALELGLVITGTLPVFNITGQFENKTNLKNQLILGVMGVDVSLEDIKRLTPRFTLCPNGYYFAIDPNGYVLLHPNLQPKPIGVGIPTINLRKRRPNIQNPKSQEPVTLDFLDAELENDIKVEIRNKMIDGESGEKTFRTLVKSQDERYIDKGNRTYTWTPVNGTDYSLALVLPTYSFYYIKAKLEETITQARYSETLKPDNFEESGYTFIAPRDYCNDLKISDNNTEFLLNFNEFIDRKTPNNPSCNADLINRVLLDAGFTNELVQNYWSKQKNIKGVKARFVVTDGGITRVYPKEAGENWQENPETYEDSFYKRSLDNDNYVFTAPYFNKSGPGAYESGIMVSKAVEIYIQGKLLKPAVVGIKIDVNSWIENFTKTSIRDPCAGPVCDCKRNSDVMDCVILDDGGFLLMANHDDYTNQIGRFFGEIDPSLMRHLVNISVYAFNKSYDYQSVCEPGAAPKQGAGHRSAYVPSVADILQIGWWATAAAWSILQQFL
Chain of human Cav2.2 (P54289 947-1103 partner limits assumed): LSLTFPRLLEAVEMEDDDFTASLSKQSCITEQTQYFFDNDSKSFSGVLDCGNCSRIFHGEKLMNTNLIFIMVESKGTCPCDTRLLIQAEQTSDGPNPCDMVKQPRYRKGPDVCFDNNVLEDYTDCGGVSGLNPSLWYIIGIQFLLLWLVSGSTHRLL
Chain of human Cav2.2 (P54284 whole entry partner): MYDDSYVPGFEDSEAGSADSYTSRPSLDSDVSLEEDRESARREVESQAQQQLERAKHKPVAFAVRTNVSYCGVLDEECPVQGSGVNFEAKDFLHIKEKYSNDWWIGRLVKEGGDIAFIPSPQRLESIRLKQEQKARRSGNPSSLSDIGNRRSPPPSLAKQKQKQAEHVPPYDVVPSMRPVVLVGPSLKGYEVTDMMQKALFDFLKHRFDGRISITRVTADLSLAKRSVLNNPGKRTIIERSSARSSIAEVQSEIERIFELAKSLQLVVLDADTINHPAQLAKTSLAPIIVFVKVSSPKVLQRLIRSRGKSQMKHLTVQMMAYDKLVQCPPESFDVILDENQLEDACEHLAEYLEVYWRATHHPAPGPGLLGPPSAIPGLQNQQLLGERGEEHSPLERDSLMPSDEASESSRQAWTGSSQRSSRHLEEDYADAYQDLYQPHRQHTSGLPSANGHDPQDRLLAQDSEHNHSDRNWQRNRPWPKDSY
With `CC(C)N[C@@H](CC(C)(C)C)C(=O)N[C@H]1CC[C@@H]2CN(S(=O)(=O)c3ccc(C(F)(F)F)cc3Cl)C[C@@H]21` [Example 487, N^1-((3aR,4S,6aS)-2-{[2-chloro-4-(trifluoromethyl)phenyl]sulfonyl}octahydrocyclopenta[c]pyrrol-4-yl)-N^2-isopropyl-4-methyl-L-leucinamide], the IC50 was found to be 560 nM. As for `CC(C)N[C@@H](CC(C)(C)C)C(=O)N[C@H]1CC[C@@H]2CN(c3ccc(C(F)(F)F)cn3)C[C@@H]21` [Example 490, N^2-isopropyl-4-methyl-N^1-{(3aR,4S,6aS)-2-[5-(trifluoromethyl)pyridin-2-yl]octahydrocyclopenta[c]pyrrol-4-yl}-L-leucinamide], the IC50 turned out to be 3120 nM. Regarding `CC(C)N[C@@H](CC(C)(C)C)C(=O)N[C@H]1CC[C@@H]2CN(c3cccc(C(F)(F)F)n3)C[C@@H]21` [Example 491, N^2-isopropyl-4-methyl-N^1-{(3aR,4S,6aS)-2-[6-(trifluoromethyl)pyridin-2-yl]octahydrocyclopenta[c]pyrrol-4-yl}-L-leucinamide], the IC50 was found to be 260 nM.

As for `CC(C)N[C@@H](CC(C)(C)C)C(=O)N1C[C@H]2CC[C@H](NC(=O)C(c3ccc(F)cc3)c3ccc(F)cc3)[C@H]2C1` [Example 492, 2,2-bis(4-fluorophenyl)-N-[(3aR,4S,6aS)-2-(N-isopropyl-4-methyl-L-leucyl)octahydrocyclopenta[c]pyrrol-4-yl]acetamide], the IC50 was 2000 nM. Consider `CC(C)C[C@H](NC(C)C)C(=O)N[C@H]1CC[C@@H]2CN(S(=O)(=O)c3cccc(C(F)(F)F)c3)C[C@@H]21` [Example 496, N^2-isopropyl-N^1-((3aR,4S,6aS)-2-{[3-(trifluoromethyl)phenyl]sulfonyl}octahydrocyclopenta[c]pyrrol-4-yl)-L-leucinamide], for which the IC50 was found to be 530 nM. To `CC(C)C[C@@H](C(=O)N[C@H]1CC[C@@H]2CN(S(=O)(=O)c3cccc(C(F)(F)F)c3)C[C@@H]21)N(C)C` [Example 497, N^2,N^2-dimethyl-N^1-((3aR,4S,6aS)-2-{[3-(trifluoromethyl)phenyl]sulfonyl}octahydrocyclopenta[c]pyrrol-4-yl)-L-leucinamide] belongs 570 nM; to `CC(C)(C)C[C@H](NC1CC1)C(=O)N[C@H]1CC[C@@H]2CN(S(=O)(=O)c3ccc(C(F)(F)F)cc3)C[C@@H]21` [Example 499, N^2-cyclopropyl-4-methyl-N^1-((3aR,4S,6aS)-2-{[4-(trifluoromethyl)phenyl]sulfonyl}octahydrocyclopenta[c]pyrrol-4-yl)-L-leucinamide], 2700 nM; to `CC(C)(C)C[C@H](NC1CCCC1)C(=O)N[C@H]1CC[C@@H]2CN(S(=O)(=O)c3ccc(C(F)(F)F)cc3)C[C@@H]21` [Example 501, N^2-cyclopentyl-4-methyl-N^1-((3aR,4S,6aS)-2-{[4-(trifluoromethyl)phenyl]sulfonyl}octahydrocyclopenta[c]pyrrol-4-yl)-L-leucinamide], 820 nM.

Consider `CC(C)(C)C[C@H](NC1CCCCC1)C(=O)N[C@H]1CC[C@@H]2CN(S(=O)(=O)c3ccc(C(F)(F)F)cc3)C[C@@H]21` [Example 502, N^2-cyclohexyl-4-methyl-N^1-((3aR,4S,6aS)-2-{[4-(trifluoromethyl)phenyl]sulfonyl}octahydrocyclopenta[c]pyrrol-4-yl)-L-leucinamide], for which the half-inhibitory concentration (IC50) was 970 nM. The figure for `CCC(CC)N[C@@H](CC(C)(C)C)C(=O)N[C@H]1CC[C@@H]2CN(S(=O)(=O)c3ccc(C(F)(F)F)cc3)C[C@@H]21` [Example 503, N^2-(1-ethylpropyl)-4-methyl-N^1-((3aR,4S,6aS)-2-{[4-(trifluoromethyl)phenyl]sulfonyl}octahydrocyclopenta[c]pyrrol-4-yl)-L-leucinamide] is 890 nM; for `CC(C)(C)C[C@H](NC1CCC1)C(=O)N[C@H]1CC[C@@H]2CN(S(=O)(=O)c3ccc(C(F)(F)F)cc3)C[C@@H]21` [Example 504, N^2-cyclobutyl-4-methyl-N^1-((3aR,4S,6aS)-2-{[4-(trifluoromethyl)phenyl]sulfonyl}octahydrocyclopenta[c]pyrrol-4-yl)-L-leucinamide] it is 910 nM; for `CCC[C@H](NC1CCCCC1)C(=O)N[C@H]1CC[C@@H]2CN(S(=O)(=O)c3ccc(C(F)(F)F)cc3)C[C@@H]21` [Example 507, N^2-cyclohexyl-N^1-((3aR,4S,6aS)-2-{[4-(trifluoromethyl)phenyl]sulfonyl}octahydrocyclopenta[c]pyrrol-4-yl)-L-norvalinamide] it is 870 nM. With `CC(C)(C)C[C@H](NC1CCCC1)C(=O)N[C@H]1CC[C@@H]2CN(C(=O)[C@H](CC(C)(C)C)NC3CCCC3)C[C@@H]21` [Example 508, N^2-cyclopentyl-N^1-[(3aR,4S,6aS)-2-(N-cyclopentyl-4-methyl-L-leucyl)octahydrocyclopenta[c]pyrrol-4-yl]-4-methyl-L-leucinamide], the half-maximal inhibitory concentration (IC50) is 8600 nM. To `CC(C)C[C@@H](C(=O)N[C@@H]1CC[C@H]2CN(Cc3ccccc3)C[C@H]21)N(C)CC(C)(C)C` [Example 510, N^1-[(3aS,4R,6aR)-2-benzyloctahydrocyclopenta[c]pyrrol-4-yl]-N^2-methyl-N^2-neopentyl-L-leucinamide] belongs 1680 nM; to `CC(C)C[C@@H](C(=O)N[C@@H]1CC[C@H]2CN(Cc3ccccc3)C[C@H]21)N(C)CCC(C)(C)C` [Example 511, N^1-[(3aS,4R,6aR)-2-benzyloctahydrocyclopenta[c]pyrrol-4-yl]-N^2-(3,3-dimethylbutyl)-N^2-methyl-L-leucinamide], 2120 nM. The figure for `CC(C)C[C@@H](C(=O)N[C@@H]1CC[C@H]2CN(S(=O)(=O)c3cccc(C(F)(F)F)c3)C[C@H]21)N(C)C` [Example 512, N^2,N^2-dimethyl-N^1-((3aS,4R,6aR)-2-{[3-(trifluoromethyl)phenyl]sulfonyl}octahydrocyclopenta[c]pyrrol-4-yl)-L-leucinamide] is 470 nM; for `CC(C)C[C@@H](C(=O)N[C@@H]1CC[C@H]2CN(Cc3ccccc3)C[C@H]21)N(C)Cc1ccc(F)cc1` [Example 513, N^1-[(3aS,4R,6aR)-2-benzyloctahydrocyclopenta[c]pyrrol-4-yl]-N^2-(4-fluorobenzyl)-N^2-methyl-L-leucinamide] it is 2150 nM. The figure for `CC(C)[C@@H](CC(=O)N[C@H]1CC[C@@H]2CN(S(=O)(=O)c3cccc(C(F)(F)F)c3)C[C@@H]21)NS(C)(=O)=O` [Example 515, (3R)-4-methyl-3-[(methylsulfonyl)amino]-N-((3aR,4S,6aS)-2-{[3-(trifluoromethyl)phenyl]sulfonyl}octahydrocyclopenta[c]pyrrol-4-yl)pentanamide] is 3170 nM. `CC(C)C[C@H](NS(C)(=O)=O)C(=O)N[C@H]1CC[C@@H]2CN(Cc3cccc(C(F)(F)F)c3)C[C@@H]21` [Example 516, N^2-(methylsulfonyl)-N^1-{(3aR,4S,6aS)-2-[3-(trifluoromethyl)benzyl]octahydrocyclopenta[c]pyrrol-4-yl}-L-leucinamide]: the IC50 was 2990 nM. `CC(C)C[C@@H](NS(C)(=O)=O)C(=O)N[C@H]1CC[C@@H]2CN(Cc3cccc(C(F)(F)F)c3)C[C@@H]21` [Example 517, N^2-(methylsulfonyl)-N^1-{(3aR,4S,6aS)-2-[3-(trifluoromethyl)benzyl]octahydrocyclopenta[c]pyrrol-4-yl}-D-leucinamide]: the IC50 was 4450 nM.

The values above are taken from patent US8129417B2, “Substituted octahydrocyclopenta[C]pyrrol-4-amines as calcium channel blockers” (Abbott Laboratories, priority 2008, dated 2012).
